Test systems include U-251; T47D; TK-10; OVCAR-3; SF-295; BT-549; NCI-H23; SF-539; DU-145; SN12C; NCI-H460; EKVX; KM12; MDA-MB-435; UACC-257; SNB-19; MDA-N; SR; LOX IMVI.
Common to all, as to assay: DTP human tumour cell line panel, 48 h

Each structure is given as a SMILES string.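 Cultured in 96-well plates, cells were exposed to test compound for 48 hours across five concentrations. Abbreviation: GI50, concentration required for 50% inhibition of growth.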 Activity calls are given as the source filed them. Cut-off read from the data, not from the text of the source: active = GI50 up to about 1.1 µM and inactive = higher.

For orientation: GI50 means the concentration at which growth is held to half of that of the control. In the case of `Oc1cc(-c2cccc(OC(F)(F)F)c2)nc2cc3c(cc12)OCO3`, the GI50 was 0.0658 µM (active) with U-251; 55.7 µM (inactive) with T47D; 5.19 µM (inactive) with TK-10; 0.0547 µM (active) with OVCAR-3; 0.0845 µM (active) in the experiment with SF-295; 0.327 µM (active) with BT-549. For the same compound, the GI50 with NCI-H23 is 0.12 µM (active); in the experiment with SF-539 it was 0.084 µM (active); in the experiment with DU-145 it was 0.0459 µM (active); in the experiment with SN12C, 0.169 µM (active); with NCI-H460 it was 0.0877 µM (active); with EKVX it was 0.643 µM (active). Besides, the GI50 with KM12 is 0.0968 µM (active); in the experiment with MDA-MB-435, < 0.0156 µM (active); in the experiment with UACC-257, 1.68 µM (inactive); in the experiment with SNB-19, 0.0938 µM (active); in the experiment on MDA-N, 0.0143 µM (active).

Regarding `O=C(CC(C(=O)O)N1CCOCC1)c1ccccc1` (stereo not drawn), the GI50 in the experiment with U-251 was 16.7 µM (inactive); in the experiment with T47D, > 100 µM (inactive); in the experiment on TK-10, 15.9 µM (inactive); in the experiment on OVCAR-3, 20 µM (inactive); in the experiment with SF-295 it was 41.2 µM (inactive); in the experiment on BT-549, 18.6 µM (inactive). Moreover, the GI50 was 20.7 µM (inactive) with NCI-H23; 22.6 µM (inactive) with SF-539; 23.6 µM (inactive) with DU-145; 17.8 µM (inactive) in the experiment on SN12C; 19.5 µM (inactive) in the experiment with NCI-H460; 18.4 µM (inactive) in the experiment with EKVX. Also, the GI50 was 16.4 µM (inactive) in the experiment on SR; 13.4 µM (inactive) in the experiment on UACC-257; 21 µM (inactive) in the experiment on SNB-19; 17.5 µM (inactive) in the experiment on LOX IMVI; 17.8 µM (inactive) in the experiment with MDA-N.

With `Cc1ccsc1/C=N/Nc1cc(C)c2ccccc2n1`, the GI50 was 14 µM (inactive) in the experiment on U-251; 17.8 µM (inactive) in the experiment with T47D; 14.7 µM (inactive) with TK-10; 3.94 µM (inactive) in the experiment with OVCAR-3; 3.04 µM (inactive) in the experiment on SF-295; 21 µM (inactive) in the experiment with BT-549. Further, the GI50 in the experiment with NCI-H23 was 11.2 µM (inactive); in the experiment with DU-145 it was 12.6 µM (inactive); with SN12C, 15.2 µM (inactive); in the experiment on EKVX it was 6.82 µM (inactive); in the experiment with KM12, 15.6 µM (inactive); in the experiment on MDA-MB-435 it was 14 µM (inactive). The GI50 with UACC-257 is 6.78 µM (inactive); in the experiment with SNB-19, 16.6 µM (inactive); in the experiment on LOX IMVI, 12 µM (inactive); in the experiment with MDA-N, 14.5 µM (inactive).

With `CCCCCCCCCC[C@@H](O)[C@H]1CC[C@H]([C@H]2CC[C@H]([C@H](O)CCCCCCCCCC[C@@H]3CC(CC(C)=O)C(=O)O3)O2)O1` (stereo partly drawn), the GI50 was > 50 µM (inactive) in the experiment with U-251; > 17.2 µM (inactive) in the experiment with T47D; > 39.4 µM (inactive) in the experiment on TK-10; 15.1 µM (inactive) in the experiment on OVCAR-3; 1.94 µM (inactive) with SF-295; 46.2 µM (inactive) with BT-549. For the same compound, the GI50 in the experiment with NCI-H23 was 1.7 µM (inactive); with SF-539, 17.3 µM (inactive); with DU-145, > 50 µM (inactive); in the experiment with SN12C, 33.4 µM (inactive); with NCI-H460, 0.254 µM (active); in the experiment on EKVX, 7.43 µM (inactive). The GI50 with KM12 is 15.8 µM (inactive); in the experiment with SR, 0.562 µM (active); in the experiment on MDA-MB-435, > 39.1 µM (inactive); with UACC-257, 0.914 µM (active); in the experiment with SNB-19, > 47.3 µM (inactive); with LOX IMVI it was 1.12 µM (inactive).

For the compound `Nc1nc2c(ncn2Cc2ccccc2CO)c(=O)[nH]1`, the GI50 with U-251, in the experiment on T47D, in the experiment with TK-10, in the experiment on OVCAR-3, in the experiment on SF-295 and with BT-549 was > 100 µM (inactive) in each case. For the same compound, the GI50 in the experiment with NCI-H23, with SF-539, in the experiment on DU-145, in the experiment with SN12C, in the experiment on NCI-H460 and in the experiment on EKVX was > 100 µM (inactive) each time. Also, the GI50 in the experiment with KM12, with SR, in the experiment with MDA-MB-435, in the experiment on UACC-257, in the experiment on SNB-19 and in the experiment on LOX IMVI was > 100 µM (inactive) each time.

Turning to `S=C(Nc1ccccc1)N(Cc1ccccc1)c1ccccc1`, the GI50 was 42.6 µM (inactive) with U-251; 56 µM (inactive) in the experiment on T47D; 29.7 µM (inactive) in the experiment with TK-10; 30.2 µM (inactive) with OVCAR-3; 34.3 µM (inactive) with SF-295; 0.34 µM (active) in the experiment with BT-549. The GI50 was > 100 µM (inactive) in the experiment on NCI-H23; 17.7 µM (inactive) with SF-539; 6.75 µM (inactive) in the experiment on DU-145; 44.1 µM (inactive) with SN12C; 28.6 µM (inactive) in the experiment with NCI-H460; 17.5 µM (inactive) in the experiment on EKVX. The GI50 with KM12 is 21.2 µM (inactive); in the experiment with SR, 20.5 µM (inactive); with MDA-MB-435 it was 20.3 µM (inactive); in the experiment with UACC-257, 22.4 µM (inactive); with SNB-19, 80.2 µM (inactive); with LOX IMVI it was 33 µM (inactive).

Turning to `c1ccc2c(c1)[C@@H]1O[C@@H]1[C@@]13O[C@@]21[C@H]1O[C@H]1c1ccccc13`, the GI50 in the experiment on U-251 is 12.3 µM (inactive); in the experiment on T47D it was 17.8 µM (inactive); with TK-10, 18.1 µM (inactive); in the experiment with OVCAR-3 it was 16.5 µM (inactive); in the experiment on SF-295, 15.1 µM (inactive); in the experiment with BT-549 it was 16.2 µM (inactive). The GI50 in the experiment on NCI-H23 was 14 µM (inactive); with SF-539, 16.5 µM (inactive); in the experiment with DU-145, 15.3 µM (inactive); in the experiment on SN12C, 17.7 µM (inactive); in the experiment on NCI-H460 it was 14.7 µM (inactive); with EKVX, 17 µM (inactive). Also, the GI50 in the experiment with KM12 was 12.9 µM (inactive); with MDA-MB-435, 13.7 µM (inactive); in the experiment on UACC-257, 17.6 µM (inactive); in the experiment with SNB-19 it was 16.1 µM (inactive); with LOX IMVI, 10.2 µM (inactive); in the experiment with MDA-N, 15.6 µM (inactive).

Consider `N#CCc1nc(-c2cc3c(ccc4ccccc43)oc2=O)cs1`, for which the GI50 was 18.9 µM (inactive) in the experiment with U-251; 27.8 µM (inactive) with T47D; 18.1 µM (inactive) with TK-10; 26.7 µM (inactive) with SF-295; 17.1 µM (inactive) in the experiment with BT-549; 21.5 µM (inactive) with SF-539. For the same compound, the GI50 was 23.9 µM (inactive) in the experiment on DU-145; 57.8 µM (inactive) in the experiment with SN12C; 43.1 µM (inactive) in the experiment with NCI-H460; 20.3 µM (inactive) with EKVX; 33.6 µM (inactive) in the experiment on KM12; > 100 µM (inactive) with MDA-MB-435. In addition, the GI50 with UACC-257 is 26.9 µM (inactive); in the experiment on SNB-19, 19.1 µM (inactive); in the experiment on LOX IMVI, > 100 µM (inactive).

`Cc1ccc(S(=O)(=O)NC(=O)NC(CC(=O)O)C(=O)O)cc1` (stereo not drawn): the GI50 in the experiment on U-251, with T47D, with TK-10, in the experiment with SF-295, with BT-549 and with NCI-H23 was > 100 µM (inactive) in each case. In addition, the GI50 in the experiment on SF-539, in the experiment on DU-145, with SN12C, in the experiment with NCI-H460, in the experiment on KM12 and in the experiment on SR was > 100 µM (inactive) in each case. The GI50 with UACC-257, in the experiment on SNB-19, with LOX IMVI and in the experiment with MDA-N was > 100 µM (inactive) each time.

Turning to `C[C@@H](C[C@@H](O)[C@H](O)C(C)(C)O)[C@H]1CC=C2[C@]3(C)[C@H](O)C[C@H]4C(C)(C)[C@H](O)CC[C@]4(C)[C@H]3CC[C@@]21C`, the GI50 in the experiment with U-251 was 16.7 µM (inactive); in the experiment with TK-10, 18 µM (inactive); in the experiment on OVCAR-3, 13.3 µM (inactive); in the experiment on SF-295, 15 µM (inactive); in the experiment on BT-549, 17.1 µM (inactive); with NCI-H23, 17.6 µM (inactive). Besides, the GI50 in the experiment with SF-539 was 18.1 µM (inactive); in the experiment with DU-145, 16.9 µM (inactive); in the experiment with SN12C, 15.7 µM (inactive); with NCI-H460 it was 15.8 µM (inactive); in the experiment on EKVX, 12.3 µM (inactive); in the experiment with KM12, 15.7 µM (inactive). Further, the GI50 in the experiment with SR was 21.9 µM (inactive); in the experiment with MDA-MB-435, 16.4 µM (inactive); with UACC-257 it was 16.1 µM (inactive); with SNB-19 it was 16 µM (inactive); with LOX IMVI, 15.8 µM (inactive); in the experiment with MDA-N, 15.6 µM (inactive).

Consider `O=C(NCCCCNCCCNC(=O)c1ccccc1)c1ccccc1`, for which the GI50 in the experiment with U-251, in the experiment on T47D, in the experiment with TK-10, in the experiment with OVCAR-3, in the experiment with SF-295 and in the experiment on BT-549 was > 100 µM (inactive) in each case. Also, the GI50 in the experiment with NCI-H23, with SF-539, in the experiment on DU-145, in the experiment with SN12C, with NCI-H460 and in the experiment on EKVX was > 100 µM (inactive) each time. Besides, the GI50 in the experiment with KM12, in the experiment with SR, with MDA-MB-435, in the experiment on UACC-257 and in the experiment with SNB-19 was > 100 µM (inactive) throughout.
